Series [1] is described as follows: Bioavailability of 6-O-methylerythromycin in dogs (Example 12). The format is in vivo. The following applies: dog, blood, po, 250 mg 6-O-methylerythromycin, fasted, histamine. The protocol: All dogs were fasted overnight, and histamine was administered one hour prior to dosing with the test composition. […] Blood samples were drawn and assayed using a standard microbiological assay. All dogs were fed 12 hours after dosing.

The nature of series [2]: Solubility of drug after stirring material providing approx. 20 mg/mL active drug for 24 hours in water (buffer for pure drugs). The format is physicochemical.

Converted amounts (≈) assume the structure as drawn.

By AUC(0-t) is commonly meant exposure summed from dosing to a finite time, without extrapolation to infinity. Lower therefore signals low exposure. For orientation: Cmax means the maximum level reached in the sampled fluid or tissue. A word on the Tmax: it is the time from dosing to the highest level. In general, solubility refers to how much of the substance goes into solution per volume. A high value points to much dissolved substance.

Regarding `CC[C@H]1OC(=O)[C@H](C)[C@@H](O[C@H]2C[C@@](C)(OC)[C@@H](O)[C@H](C)O2)[C@H](C)[C@@H](O[C@@H]2O[C@H](C)C[C@H](N(C)C)[C@H]2O)[C@](C)(OC)C[C@@H](C)C(=O)[C@H](C)[C@@H](O)[C@]1(C)O` [6-O--Methyl-ery, 6-O-methylerythromycin], in series [1], the AUC(0-t) at 8 h was determined as 43500 ng·h/mL, the Cmax came out at 5370 ng/mL and the Tmax worked out at 1.33 h. Further, the solubility at 24 h in series [2] (pH 6.2, aqueous buffer) amounted to 7000 µg/mL (≈ 9360 µM). In series [2] (pH 7, aqueous buffer), this compound registered a solubility at 24 h of 1650 µg/mL (≈ 2210 µM). In series [2] (pH 7.98, aqueous buffer), this compound gave a solubility at 24 h of 134 µg/mL (≈ 179 µM).

For the compound `CC[C@H]1OC(=O)[C@H](C)[C@@H](O[C@H]2C[C@@](C)(OC)[C@@H](O)[C@H](C)O2)[C@H](C)[C@@H](O[C@@H]2O[C@H](C)C[C@H](N(C)C)[C@H]2O)[C@](C)(O)C[C@@H](C)C(=O)[C@H](C)[C@@H](O)[C@]1(C)O` [Erythromycin, erythromycin], the solubility at 24 h in series [2] (pH 7.72, aqueous buffer) is 12200 µg/mL (≈ 16600 µM); in series [2] (pH 8.24, aqueous buffer) it was 2120 µg/mL (≈ 2890 µM).

Source of the values: patent publication US4808411A, “Antibiotic-polymer compositions” (Abbott Laboratories, priority 1987, dated 1989).
